Experimental data taken from patent US11034698B2, “Pyrazolo[ 1,5a]pyrimidine derivatives as IRAK4 modulators” (priority 2017, dated 2021).

Each compound was assayed against human IRAK4 (Homo sapiens (Human), UniProt Q9NWZ3) (assay: IRAK4 kinase inhibition, Transcreener fluorescence polarization (ADP)). Settings: not given.
human IRAK4, sequence (Q9NWZ3 whole entry): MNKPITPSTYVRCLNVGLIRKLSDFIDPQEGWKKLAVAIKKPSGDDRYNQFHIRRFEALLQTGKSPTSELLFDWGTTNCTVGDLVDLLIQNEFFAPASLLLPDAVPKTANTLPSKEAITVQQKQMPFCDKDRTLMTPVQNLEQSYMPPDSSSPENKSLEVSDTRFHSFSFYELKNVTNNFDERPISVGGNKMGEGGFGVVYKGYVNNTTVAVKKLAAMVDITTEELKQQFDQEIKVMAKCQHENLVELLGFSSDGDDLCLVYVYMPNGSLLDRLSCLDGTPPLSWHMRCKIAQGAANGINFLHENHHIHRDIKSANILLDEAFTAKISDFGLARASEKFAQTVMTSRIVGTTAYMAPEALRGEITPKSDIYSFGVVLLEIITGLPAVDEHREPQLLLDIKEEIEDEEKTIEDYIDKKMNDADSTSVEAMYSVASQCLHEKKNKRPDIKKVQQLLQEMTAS
Format: biochemical
Summary of the method: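 The enzyme was full-length human IRAK4 with an N-terminal His6 tag, expressed in insect cells. Kinase activity was read as ADP product by Transcreener fluorescence polarization.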
For `CC(C)(O)[C@H](F)CN1Cc2cc(NC(=O)c3cnn4cccnc34)c(O[C@H]3CCOC3)cc2C1=O` (single isomer, unassigned) [Example 84], the Ki was 0.49 nM.
Compound `CC(C)(O)[C@H](F)CN1Cc2cc(NC(=O)c3cnn4cccnc34)c(OC[C@H]3CNC(=O)C3)cc2C1=O` (single isomer, unassigned) [Example 72] has a Ki of 1 nM.

Same assay, conditions: recombinant full-length His6-IRAK4 1.25 nM; 125 uM ATP; 125 uM peptide; 90 min; ATP Km 642 uM; read-out: IRAK4 Ki
With `CN1C[C@H](COc2cc3c(cc2NC(=O)c2cnn4cccnc24)CC(C)(C)O3)CC1=O` [Example 24, (R)-N-(2,2-Dimethyl-6-((1-methyl-5-oxopyrrolidin-3-yl)methoxy)-2,3-dihydrobenzofuran-5-yl)pyrazolo[1,5-a]pyrimidine-3-carboxamide] the Ki was 160 nM.
`COc1cc2c(cc1NC(=O)c1cnn3ccc(Cl)nc13)CC(C)(C)O2` [Example 21, 5-Chloro-N-(6-methoxy-2,2-dimethyl-2,3-dihydrobenzofuran-5-yl)pyrazolo[1,5-a]pyrimidine-3-carboxamide] was tested, and the Ki was 110 nM.
For `CC(C)(O)[C@H](F)CN1Cc2cc(NC(=O)c3cnn4cccnc34)c(OCC(F)(F)F)cc2C1=O` [Example 135, (R)—N-(2-(2-Fluoro-3-hydroxy-3-methylbutyl)-1-oxo-6-(2,2,2-trifluoroethoxy)isoindolin-5-yl)pyrazolo[1,5-a]pyrimidine-3-carboxamide], the Ki was 0.63 nM.
`CC(C)(O)[C@H](F)CN1Cc2cc(NC(=O)c3cnn4cccnc34)c(OC3COC3)cc2C1=O` [Example 87, (R)-N-(2-(2-Fluoro-3-hydroxy-3-methylbutyl)-6-(oxetan-3-yloxy)-1-oxoisoindolin-5-yl)pyrazolo[1,5-a]pyrimidine-3-carboxamide] showed a Ki of 0.59 nM.
`COc1cc2c(cc1NC(=O)c1cnn3ccc(N4CCC[C@@H](N)C4)nc13)CC(C)(C)O2` [Example 39, (R)-5-(3-Aminopiperidin-1-yl)-N-(6-methoxy-2,2-dimethyl-2,3-dihydrobenzofuran-5-yl)pyrazolo[1,5-a]pyrimidine-3-carboxamide] gave a Ki of 4.1 nM.
With `COc1cc2c(cc1NC(=O)c1cnn3ccc(N[C@@H]4CCCNC4)nc13)CC(C)(C)O2` [Example 40, (R)-N-(6-Methoxy-2,2-dimethyl-2,3-dihydrobenzofuran-5-yl)-5-(piperidin-3-ylamino)pyrazolo[1,5-a]pyrimidine-3-carboxamide] the Ki was 0.87 nM.
